Experimental data published in US20090259043A1, “TRICYCLIC CYTOPROTECTIVE COMPOUNDS” (HUNTER-FLEMING LIMITED, priority 2005, published 2009).

Experiments:
[1] = test system: organotypic hippocampal slice cultures; test: Neuroprotection against hypoxia in organotypic hippocampal slice cultures (PI fluorescence in CA1); type: cell-based, Wistar rat; conditions: vs control (hypoxia only = 100% damage); 180 min hypoxia; compound present 45 min pre-hypoxia, during and 24 h post-hypoxia; PI fluorescence area in CA1
Method: Organotypic hippocampal slice cultures were prepared using the basic method of Pringle et al [Brain Res. 755, 36-46 (1997)] modified as follows:
Wistar rat pups (8-11 days old) were decapitated and the hippocampus rapidly dissected into ice-cold Gey's balanced salt solution supplemented with 4.5 mg/ml glucose. Slices were separated and plated onto Millicell CM culture inserts (4 per well) and maintained at 37° C./5% CO2 for 14 days. Maintenance medium consisted of 25% heat-inactivated horse serum, 25% Hank's balanced salt solution (HBSS) and 50% minimum essential medium with added Earle's salts (MEM) supplemented with 1 mM glutamine and 4.5 mg/ml glucose. Medium was changed every 3-4 days.
Experimental hypoxia was performed as described previously (Pringle et al., Stroke 27, 21-24 (1996)& Brain Res. 755, 36-46 (1997)]. Briefly, cultures were transferred to serum free medium (SFM-75% MEM, 25% HBSS supplemented with 1 mM glutamine and 4.5 mg/ml glucose) containing 5 μg/ml of the fluorescent exclusion dye propidium iodide (PI). Cultures were allowed to equilibrate in SFM for 60 minutes prior to imaging. PI fluorescence was detected using a Leica DMIL inverted microscope fitted with a rhodamine filter set. Any cultures in which PI fluorescence was detected at this stage were excluded from further study. Hypoxia was induced by transferring cultures to SFM (+PI) which had been saturated with 95% N2/5% CO2. Culture plates (without lids) were then sealed into an airtight chamber in which the atmosphere was saturated with 95% N2/5% CO2 by continuously blowing through gas at 10 L/minute for ten minutes before being sealed and placed in the incubator for 170 minutes (total time of hypoxia was therefore 180 minutes). At the end of the hypoxic period cultures were returned to normoxic SFM containing PI and placed back in the incubator for 24 hours.
Neuronal damage was assessed using ImageJ running on a PC. Images were captured using a CCD camera and saved for offline analysis. Light transmission images were captured prior to the addition of drugs, and PI fluorescence images recorded at the end of the 24-hour post-hypoxia recovery period. The area of the CA1 sub-region was determined from the transmission image. The area of PI fluorescence in the CA1 was measured using the threshold function on ImageJ, and neuronal damage expressed as the percentage of the CA1 in which PI fluorescence was detected above background.
Unpaired Student's t-tests were employed to ascertain statistical significance.
A series of compounds were examined for possible neuroprotection against hypoxia in organotypic hippocampal slice cultures. Compounds No. 4, 6, 7, 8, 10, 14, 15, 16, 17, 20, 21, 22 and 23 were dissolved in DMSO to a concentration of 1 mg/ml.
7β-hydroxy-epiandrosterone (7β-OH EPIA), a neuroprotective compound, at 100 nM concentrations, was employed as a positive control. A stock solution of 1 mg/ml was dissolved in ethanol. Final dilutions were made in SFM.
The efficacy of all compounds was assessed using a pre-during and post-hypoxia paradigm—compounds were present in the medium 45 minutes pre-hypoxia, the 3 hours of hypoxia and 24 hours post-hypoxia.

| melting point | Compound | % damage in hypoxia model with compound [1] |
| --- | --- | --- |
| 128 to 130 °C | COc1ccc2[nH]c3c(c2c1)CCC3 [Compound No. 17, 7-Methoxy-1,2,3,4-tetrahydrocyclopenta[b]indole] | 35% |
|  | COc1ccc2[nH]c3c(c2c1)CCCC3 [compound 16, Methyl 2,3,4,9-tetrahydro-1H-carbazol-6-yl ether] | 60% |
| 270 to 274 °C | O=C(O)c1ccc2[nH]c3c(c2c1)CCC3 [Compound No. 18, 1,2,3,4-Tetrahydrocyclopenta[b]indole-7-carboxylic acid] |  |
|  | O/N=C1\CCCc2[nH]c3ccccc3c21 [Compound No. 20, (4E)-1,2,3,9-Tetrahydro-4H-carbazol-4-one oxime] | 54% |
|  | OC1CCc2[nH]c3ccccc3c2C1 (stereo not drawn) [Compound No. 4, 2,3,4,9-Tetrahydro-1H-carbazol-3-ol] | 58% |
| 228 to 230 °C | Cc1ccc(C)c2c3c([nH]c12)CC(C(=O)O)CC3 (stereo not drawn) |  |
| 192 to 195 °C | Cc1ccc2c3c([nH]c2c1C)CCC(O)C3 (stereo not drawn) [Compound No. 10, 7,8-Dimethyl-2,3,4,9-tetrahydro-1H-carbazol-3-ol] | 76% |
| 158 to 161 °C | Cc1ccc(C)c2c3c([nH]c12)CCC(O)C3 (stereo not drawn) |  |
|  | COc1ccc2[nH]c3c(c2c1)CC(=O)CC3 [compound 23, 6-Methoxy-1,2,4,9-tetrahydro-3H-carbazol-3-one] | 57% |
| 173 to 175 °C (dec.) | O/N=C1\CCc2[nH]c3ccccc3c2C1 [Compound No. 21, (3E)-1,2,4,9-Tetrahydro-3H-carbazol-3-one oxime] | 40% |
|  | O=C1CCc2[nH]c3ccccc3c2C1 [Compound No. 7, 1,2,4,9-Tetrahydro-3H-carbazol-3-one] | 70% |
|  | O=C(O)c1ccc2[nH]c3c(c2c1)CCCC3=O [Compound No. 14, 1-Oxo-2,3,4,9-tetrahydro-1H-carbazole-6-carboxylic acid] | 53% |
|  | O=C1CCc2[nH]c3ccccc3c21 [Compound No. 8, 3,4-dihydrocyclopenta[b]indol-1 (2H)-one] | 59% |
|  | COc1ccc2[nH]c3c(c2c1)CCC(C(=O)O)C3 (stereo not drawn) [Compound No. 15, 6-Methoxy-2,3,4,9-tetrahydro-11H-carbazole-2-carboxylic acid] | 65% |
| 283 to 286 °C (dec.) | COc1ccc2[nH]c3c(c2c1)CS(=O)(=O)CC3 [Compound No. 12, 8-Methoxy-1,3,4,5-tetrahydrothiopyrano[43-b]indole 2,2-dioxide] |  |
|  | c1ccc2c3c([nH]c2c1)CCC1(C3)OCCO1 [Compound No. 6, 1,2,4,9-Tetrahydro-spiro[carbazole-3,2′-[1,3-dioxolane]] | 63% |

| Compound | melting point | % damage in hypoxia model with compound [1] |
| --- | --- | --- |
| COc1ccc2[nH]c3c(c2c1)CC1(CC3)OCCO1 [Compound No. 22] | 168 to 169 °C | 75% |
